System: human liver microsomes, LC/MS/MS parent remaining, 60 min
Test: human hepatic microsomal compound turnover – biochemical, ADME assay, late-stage follow-up (AID 1555)
Settings: at 1 µM, stronger effect = lower value

`C=CCn1c(SCC(=O)c2ccc(O)c(O)c2)nnc1-c1ccccc1OC` was tested, and the percent remaining was 47% and the percent remaining (measured here: remaining without NADPH control) was 100%.

Source: PubChem BioAssay AID1555 (Sanford-Burnham Center for Chemical Genomics, 2009)
